How the values were obtained:
[1] = target: T1, Solute carrier family 22 member 11 (Homo sapiens, UniProt Q9NSA0); experiment: (§1) TP_TRANSPORTER: uptake in Xenopus laevis oocytes; format: functional, cell-based; settings: oocyte
T1 sequence (Q9NSA0 whole entry): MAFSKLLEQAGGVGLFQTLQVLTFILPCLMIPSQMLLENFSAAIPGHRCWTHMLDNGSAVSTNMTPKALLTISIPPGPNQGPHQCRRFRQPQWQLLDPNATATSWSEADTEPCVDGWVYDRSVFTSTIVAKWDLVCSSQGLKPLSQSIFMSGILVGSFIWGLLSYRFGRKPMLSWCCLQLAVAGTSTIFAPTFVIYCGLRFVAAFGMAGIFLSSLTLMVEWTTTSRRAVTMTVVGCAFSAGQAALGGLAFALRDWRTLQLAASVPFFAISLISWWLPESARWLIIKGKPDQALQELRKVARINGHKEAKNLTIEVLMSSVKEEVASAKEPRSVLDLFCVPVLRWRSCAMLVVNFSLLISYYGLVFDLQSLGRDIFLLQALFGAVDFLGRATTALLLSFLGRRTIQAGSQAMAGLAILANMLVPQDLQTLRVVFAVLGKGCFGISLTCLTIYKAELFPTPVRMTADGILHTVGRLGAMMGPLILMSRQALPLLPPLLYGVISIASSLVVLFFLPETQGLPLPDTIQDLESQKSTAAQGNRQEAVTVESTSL

[2] = target: T2, Solute carrier family 22 member 6 (Homo sapiens, UniProt Q4U2R8); experiment: as §1; format: functional, cell-based; settings: oocyte
T2 sequence (Q4U2R8 whole entry): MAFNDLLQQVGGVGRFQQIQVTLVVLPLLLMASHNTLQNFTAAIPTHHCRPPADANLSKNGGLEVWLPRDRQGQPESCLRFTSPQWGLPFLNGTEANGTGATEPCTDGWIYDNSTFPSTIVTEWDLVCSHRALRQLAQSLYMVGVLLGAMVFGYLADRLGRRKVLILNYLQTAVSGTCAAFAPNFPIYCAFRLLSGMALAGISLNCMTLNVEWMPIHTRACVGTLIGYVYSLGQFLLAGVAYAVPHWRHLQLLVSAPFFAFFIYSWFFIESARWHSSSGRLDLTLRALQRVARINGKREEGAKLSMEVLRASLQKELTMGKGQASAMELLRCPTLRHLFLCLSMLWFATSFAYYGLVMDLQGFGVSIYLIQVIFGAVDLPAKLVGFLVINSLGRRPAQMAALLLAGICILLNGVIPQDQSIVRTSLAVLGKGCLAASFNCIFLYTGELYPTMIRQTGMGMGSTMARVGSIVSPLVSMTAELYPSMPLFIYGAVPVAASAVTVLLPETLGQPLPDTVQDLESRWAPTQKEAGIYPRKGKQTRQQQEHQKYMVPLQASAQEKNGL

[3] = target: T2, Solute carrier family 22 member 6; experiment: TP_TRANSPORTER: inhibition of ochratoxin A uptake (ochratoxin A / 1uM) in Xenopus laevis oocytes; format: functional, cell-based, Oocyte
[4] = target: T1, Solute carrier family 22 member 11; experiment: TP_TRANSPORTER: inhibition of p-aminohippurate uptake (p-aminohippurate / 10uM) by ellagic acid at a concentration of 35uM in Xenopus laevis oocytes; format: functional, cell-based; set-up: scale not given: the % may be the effect or the level left; settings: oocyte

## O=c1oc2c(O)c(O)cc3c(=O)oc4c(O)c(O)cc1c4c23 [ELLAGIC ACID]
[1]
  Activity: substrate [+]
[2]
  Activity: substrate [+]
[3]
  IC50: 270 nM
[4]
  Activity: 35%
